Values quoted from earlier work, collected in patent publication US9044417B2, “Mineral, nutritional, cosmetic, pharmaceutical, and agricultural compositions and methods for producing the same” (Core Intellectual Properties Holdings, LLC, priority 2003, dated 2015).

Settings: aqueous solutions of glycolic acid, pH=3.0; general statement for comparison

## O=C(O)CO [glycolic acid]
  sting or burning when applied to freshly shaven skin: will sting or burn
